From PubChem BioAssay AID330 (DTP/NCI, 2004)
Several values for one entry are separate records, joined by “and”; a condition that tells them apart may be missing. Equal values may be shown once. Inconclusive results and toxic doses are left out.

Test system: P388 leukemia ip, CD2F1 mice, survival T/C
Test: NCI In Vivo Anticancer Drug Screen. Data for tumor model P388 Leukemia (intraperitoneal) in CD2F1 (CDF1) mice
Conditions: endpoint: median survival time, higher = longer survival
Outline: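 Mice carrying the transplanted tumor received test compound or vehicle. Survival was recorded in each group, and the value is the treated-group measurement divided by that of the vehicle-treated control group.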

[1] = dose: 50.0 mg/kg/injection, schedule: Q01DX009 (ip), vehicle: saline
[2] = dose: 100.0 mg/kg/injection, schedule: Q01DX009 (ip), vehicle: saline
[3] = dose: 200.0 mg/kg/injection, schedule: Q01DX009 (ip), vehicle: saline
[4] = dose: 50.0 mg/kg/injection, schedule: Q01DX005 (ip), vehicle: Klucel (hydroxypropylcellulose) (HPC)
[5] = dose: 100.0 mg/kg/injection, schedule: Q01DX005 (ip), vehicle: Klucel (hydroxypropylcellulose) (HPC)
[6] = dose: 200.0 mg/kg/injection, schedule: Q01DX005 (ip), vehicle: Klucel (hydroxypropylcellulose) (HPC)

For CC(C)CCCCCCCCCCCCC(=O)NCC(=O)NC1C(O)C(O)C(Nc2ncnc3nc[nH]c23)OC1C(O)CO (stereo unspecified), the T/C (dose: 0.06 mg/kg/injection, schedule: Q01DX009 (ip), vehicle: Klucel (hydroxypropylcellulose) (HPC)) was 100 % of control, the T/C (dose: 0.13 mg/kg/injection, schedule: Q01DX009 (ip), vehicle: Klucel (hydroxypropylcellulose) (HPC)) was 100 % of control and the T/C (dose: 0.25 mg/kg/injection, schedule: Q01DX009 (ip), vehicle: Klucel (hydroxypropylcellulose) (HPC)) was 100 % of control. For the same compound, the T/C (dose: 0.25 mg/kg/injection, schedule: Q01DX009 (ip), vehicle: distilled water + alcohol) was 154 % of control, the T/C (dose: 0.25 mg/kg/injection, schedule: Q01DX009 (ip), vehicle: saline with Tween-80) was 158 % of control and the T/C (dose: 0.25 mg/kg/injection, schedule: Q03HX008 (ip), vehicle: Klucel (hydroxypropylcellulose) (HPC)) was 100 % of control. The T/C (dose: 0.25 mg/kg/injection, schedule: Q03HX016 (ip), vehicle: Klucel (hydroxypropylcellulose) (HPC)) was 100 % of control, the T/C (dose: 0.25 mg/kg/injection, schedule: Q03HX024 (ip), vehicle: Klucel (hydroxypropylcellulose) (HPC)) was 95 % of control and the T/C (dose: 0.5 mg/kg/injection, schedule: Q01DX009 (ip), vehicle: Klucel (hydroxypropylcellulose) (HPC)) was 100 % of control. The T/C (dose: 0.5 mg/kg/injection, schedule: Q01DX009 (ip), vehicle: distilled water + Tween-80) was 154 % of control, the T/C (dose: 0.5 mg/kg/injection, schedule: Q01DX009 (ip), vehicle: saline with Tween-80) was 151 % of control and the T/C (dose: 0.5 mg/kg/injection, schedule: Q01DX009 (oral), vehicle: Klucel (hydroxypropylcellulose) (HPC)) was 100 % of control. The T/C (dose: 0.5 mg/kg/injection, schedule: Q03HX008 (ip), vehicle: Klucel (hydroxypropylcellulose) (HPC)) was 100 % of control, the T/C (dose: 0.5 mg/kg/injection, schedule: Q03HX016 (ip), vehicle: Klucel (hydroxypropylcellulose) (HPC)) was 100 % of control and the T/C (dose: 0.5 mg/kg/injection, schedule: Q03HX024 (ip), vehicle: Klucel (hydroxypropylcellulose) (HPC)) was 90 % of control. For the same compound, the T/C (dose: 1.0 mg/kg/injection, schedule: Q01DX009 (ip), vehicle: Klucel (hydroxypropylcellulose) (HPC)) was 100 % of control, the T/C (dose: 1.0 mg/kg/injection, schedule: Q01DX009 (ip), vehicle: distilled water + alcohol) was 110 % of control and the T/C (dose: 1.0 mg/kg/injection, schedule: Q01DX009 (ip), vehicle: saline with Tween-80) was 101 % of control and 109 % of control. The T/C (dose: 1.0 mg/kg/injection, schedule: Q01DX009 (oral), vehicle: Klucel (hydroxypropylcellulose) (HPC)) was 100 % of control, the T/C (dose: 1.0 mg/kg/injection, schedule: Q03HX008 (ip), vehicle: Klucel (hydroxypropylcellulose) (HPC)) was 100 % of control and the T/C (dose: 1.0 mg/kg/injection, schedule: Q03HX016 (ip), vehicle: Klucel (hydroxypropylcellulose) (HPC)) was 100 % of control. For the same compound, the T/C (dose: 1.0 mg/kg/injection, schedule: Q03HX024 (ip), vehicle: Klucel (hydroxypropylcellulose) (HPC)) was 95 % of control, the T/C (dose: 2.0 mg/kg/injection, schedule: Q01DX001 (ip), vehicle: Klucel (hydroxypropylcellulose) (HPC)) was 100 % of control and the T/C (dose: 2.0 mg/kg/injection, schedule: Q01DX009 (ip), vehicle: Klucel (hydroxypropylcellulose) (HPC)) was 151 % of control. The T/C (dose: 2.0 mg/kg/injection, schedule: Q01DX009 (ip), vehicle: saline with Tween-80) was 89 % of control, the T/C (dose: 2.0 mg/kg/injection, schedule: Q01DX009 (oral), vehicle: Klucel (hydroxypropylcellulose) (HPC)) was 100 % of control and the T/C (dose: 2.0 mg/kg/injection, schedule: Q03HX008 (ip), vehicle: Klucel (hydroxypropylcellulose) (HPC)) was 100 % of control. For the same compound, the T/C (dose: 2.0 mg/kg/injection, schedule: Q03HX016 (ip), vehicle: Klucel (hydroxypropylcellulose) (HPC)) was 100 % of control, the T/C (dose: 2.0 mg/kg/injection, schedule: Q03HX024 (ip), vehicle: Klucel (hydroxypropylcellulose) (HPC)) was 95 % of control and the T/C (dose: 2.0 mg/kg/injection, schedule: Q04DX003 (ip), vehicle: Klucel (hydroxypropylcellulose) (HPC)) was 100 % of control. For the same compound, the T/C (dose: 2.0 mg/kg/injection, schedule: Q08DX002 (ip), vehicle: Klucel (hydroxypropylcellulose) (HPC)) was 100 % of control, the T/C (dose: 4.0 mg/kg/injection, schedule: Q01DX001 (ip), vehicle: Klucel (hydroxypropylcellulose) (HPC)) was 100 % of control and the T/C (dose: 4.0 mg/kg/injection, schedule: Q01DX009 (oral), vehicle: Klucel (hydroxypropylcellulose) (HPC)) was 100 % of control. For the same compound, the T/C (dose: 4.0 mg/kg/injection, schedule: Q04DX003 (ip), vehicle: Klucel (hydroxypropylcellulose) (HPC)) was 100 % of control, the T/C (dose: 4.0 mg/kg/injection, schedule: Q08DX002 (ip), vehicle: Klucel (hydroxypropylcellulose) (HPC)) was 100 % of control and the T/C (dose: 8.0 mg/kg/injection, schedule: Q01DX001 (ip), vehicle: Klucel (hydroxypropylcellulose) (HPC)) was 100 % of control. The T/C (dose: 8.0 mg/kg/injection, schedule: Q04DX003 (ip), vehicle: Klucel (hydroxypropylcellulose) (HPC)) was 100 % of control, the T/C (dose: 8.0 mg/kg/injection, schedule: Q08DX002 (ip), vehicle: Klucel (hydroxypropylcellulose) (HPC)) was 100 % of control and the T/C (dose: 16.0 mg/kg/injection, schedule: Q01DX001 (ip), vehicle: Klucel (hydroxypropylcellulose) (HPC)) was 100 % of control. The T/C (dose: 16.0 mg/kg/injection, schedule: Q01DX001 (oral), vehicle: Klucel (hydroxypropylcellulose) (HPC)) was 100 % of control, the T/C (dose: 16.0 mg/kg/injection, schedule: Q04DX003 (ip), vehicle: Klucel (hydroxypropylcellulose) (HPC)) was 100 % of control and the T/C (dose: 16.0 mg/kg/injection, schedule: Q08DX002 (ip), vehicle: Klucel (hydroxypropylcellulose) (HPC)) was 104 % of control. The T/C (dose: 32.0 mg/kg/injection, schedule: Q01DX001 (oral), vehicle: Klucel (hydroxypropylcellulose) (HPC)) was 100 % of control, the T/C (dose: 64.0 mg/kg/injection, schedule: Q01DX001 (oral), vehicle: Klucel (hydroxypropylcellulose) (HPC)) was 100 % of control and the T/C (dose: 128.0 mg/kg/injection, schedule: Q01DX001 (oral), vehicle: Klucel (hydroxypropylcellulose) (HPC)) was 100 % of control.
With COc1ccc(CCN2C(=O)CC(CC3=NCCc4cc(OC)c(OC)cc43)CC2=O)cc1OC the T/C (dose: 50.0 mg/kg/injection, schedule: Q01DX005 (ip), vehicle: saline) was 103 % of control and the T/C (dose: 100.0 mg/kg/injection, schedule: Q01DX005 (ip), vehicle: saline) was 95 % of control.
N#CC(C(O)c1ccccc1)N1CCCCC1 (stereo unspecified) was tested, and the T/C (dose: 50.0 mg/kg/injection, schedule: Q01DX009 (ip), vehicle: suspension in saline) was 111 % of control, the T/C (dose: 100.0 mg/kg/injection, schedule: Q01DX009 (ip), vehicle: suspension in saline) was 100 % of control and the T/C (dose: 200.0 mg/kg/injection, schedule: Q01DX009 (ip), vehicle: suspension in saline) was 92 % of control.
Cc1ccc(S(=O)(=O)Nc2cc(S(=O)(=O)O)c(N)c3c2C(=O)c2ccccc2C3=O)cc1 was tested, and the T/C [1] was 86 % of control, the T/C [2] was 97 % of control and the T/C [3] was 101 % of control.
In the case of COc1cc(OC)c(NC(=O)N(NC(=O)NNc2ccccc2)c2ccccc2)cc1Cl, the T/C [4] is reported as 100 % of control, the T/C [5] is reported as 100 % of control and the T/C [6] is reported as 95 % of control.
In the case of CCCOc1ccccc1NC(=O)CN1CCCC1, the T/C (dose: 60.0 mg/kg/injection, schedule: Q01DX005 (ip), vehicle: saline) is reported as 104 % of control, the T/C (dose: 120.0 mg/kg/injection, schedule: Q01DX005 (ip), vehicle: saline) is reported as 106 % of control and the T/C (dose: 240.0 mg/kg/injection, schedule: Q01DX005 (ip), vehicle: saline) is reported as 116 % of control.
With NC(=O)c1c(-c2ccccc2)nc2n1CCS2 the T/C (dose: 100.0 mg/kg/injection, schedule: Q01DX001 (ip), vehicle: Klucel (hydroxypropylcellulose) (HPC)) was 106 % of control, the T/C (dose: 200.0 mg/kg/injection, schedule: Q01DX001 (ip), vehicle: Klucel (hydroxypropylcellulose) (HPC)) was 109 % of control and the T/C (dose: 400.0 mg/kg/injection, schedule: Q01DX001 (ip), vehicle: Klucel (hydroxypropylcellulose) (HPC)) was 107 % of control.
With CC(C)C(NC(=O)[C@H](C(C)C)N1C(=O)c2ccccc2C1=O)C(=O)O (stereo partly specified) the T/C (dose: 50.0 mg/kg/injection, schedule: Q01DX005 (ip), vehicle: saline with Tween-80) was 88 % of control and the T/C (dose: 100.0 mg/kg/injection, schedule: Q01DX005 (ip), vehicle: saline with Tween-80) was 96 % of control.
In the case of C[SiH](C)c1ccc(Cl)cc1, the T/C [1] is reported as 99 % of control, the T/C [2] is reported as 102 % of control and the T/C [3] is reported as 100 % of control.
For O=S1(=O)C=C(Br)CO1, the T/C (dose: 100.0 mg/kg/injection, schedule: Q04DX003 (ip), vehicle: saline with Tween-80) was 106 % of control, the T/C (dose: 200.0 mg/kg/injection, schedule: Q04DX003 (ip), vehicle: saline with Tween-80) was 106 % of control and the T/C (dose: 400.0 mg/kg/injection, schedule: Q04DX003 (ip), vehicle: saline with Tween-80) was 97 % of control.
With Cn1c(Br)c(Br)c(=O)n(C)c1=O the T/C [4] was 99 % of control, the T/C [5] was 100 % of control and the T/C [6] was 100 % of control.
CC(=O)N1C=CC(C2C=CN(C(C)=O)C=C2)C=C1 was tested, and the T/C (dose: 10.0 mg/kg/injection, schedule: Q01DX009 (ip), vehicle: saline with Tween-80) was 109 % of control, the T/C (dose: 20.0 mg/kg/injection, schedule: Q01DX009 (ip), vehicle: saline with Tween-80) was 96 % of control and the T/C (dose: 40.0 mg/kg/injection, schedule: Q01DX009 (ip), vehicle: saline with Tween-80) was 100 % of control.
